Assay results published in US20080109040A1, “METHOD OF TREATING ARRHYTHMIAS” (priority 2002, published 2008).

Tests used:
[1] = test system: arterially perfused canine left ventricular wedge preparation; experiment: Action potential and ECG studies in arterially-perfused canine left ventricular wedge preparations; parameters: APD90 ± SE, M region / TDR / APD50 ± SE, M region / QTend: unit not given beside the values; conditions: for APD50 ± SE, Epicardium / APD50 ± SE, M region / APD90 ± SE, Epicardium / APD90 ± SE, M region / QTend / TDR / Tpeak-Tend: BCL = 2000; for Ranolazine-induced Torsade de Pointes, Spontaneous / Ranolazine-induced Torsade de Pointes, Stimulation-induced: ranolazine 1-100 μM
Protocol: Transmural left ventricular wedges with dimensions of approximately 12 mm×35 mm×12 mm were dissected from the mid-to-basal anterior region of the left ventricular wall and a diagonal branch of the left anterior descending coronary artery was cannulated to deliver the perfusate (Tyrode's solution). The composition of the Tyrode's solution was (in mM): […] A separate set of experiments were performed using Tyrode's solution containing 2 mM KCl. Transmembrane action potentials were recorded from epicardial (EPI) and Subendocardial regions (M) using floating microelectrodes. A transmural pseudo-electrocardiogram (ECG) was recorded using two K-Agar electrodes (1.1 mm, i.d.) placed at approx. 1 cm. from the epicardial (+) and endocardial (−) surfaces of the preparation and along the same axis as the transmembrane recordings. […] A constant flow rate was set before ischemia to reach a perfusion pressure of 40-50 mmHg. The temperature was maintained at 37±0.5° C. by heating the perfusate and a contiguous water-chamber that surrounded the tissue-chamber with the same heater/circulating bath. The top-uncovered part of the tissue-chamber was covered in each experiment to 75% of its surface with plastic sheets to further prevent heat loss; the remainder 25% was kept uncovered to position and maneuver the ECG electrodes and the floating microelectrodes. The preparations were fully immersed in the extracellular solution throughout the course of the experiment. The QT interval was defined as the time interval between the initial deflection of the QRS complex and the point at which a tangent drawn to the steepest portion of the terminal part of the T wave crossed the isoelectric line. Experimental Series 1: […] [K^+]o=4 mM. a. Steady-state stimulation: […] b. Programmed electrical stimulation (PES): Premature stimulation was applied to the epicardial surface before and after each concentration of drug in an attempt to induce arrhythmias. Single pulses (S2) were delivered once after every fifth or tenth basic beat (S1) at cycle lengths of 2000 msec. […] Experimental Series 2: […] [K^+]o=2 mM.

[2] = test system: guinea pig isolated heart; experiment: K-H buffer perfused guinea pig isolated heart: MAP duration, EADs and VT; conditions: for Effect on ATXII-induced EADs and MAP prolongation: ranolazine 10 μM; for Decrease of MAPS90: ranolazine 10 μmol/L; for Effect on ATXII-induced EADs and VT: ranolazine 5, 10 and 30 μM in the presence of ATXII
Text: To study the effect of ranolazine on ATXII induced MAP (monophasic action potential) duration prolongation, EADs and ventricular tachyarrhythmia (VT), the K—H buffer perfused guinea pig isolated heart model was used.
Multiple EADs and sustained depolarizations were frequently observed.

[3] = target: T1, L-type calcium current (ICa) (Canis lupus familiaris, UniProt A0A8I3QY31); experiment: L-type calcium current voltage clamp in isolated canine left ventricular myocytes; assay type: cell-based; conditions: read-out: Concentration at which ranolazine blocks the calcium channel
T1 construct: Single myocytes were obtained by enzymatic dissociation from a wedge-shaped section of the ventricular free wall; endogenous in cells; host or cells: isolated canine left ventricular myocytes
T1 sequence (A0A8I3QY31 1-2188): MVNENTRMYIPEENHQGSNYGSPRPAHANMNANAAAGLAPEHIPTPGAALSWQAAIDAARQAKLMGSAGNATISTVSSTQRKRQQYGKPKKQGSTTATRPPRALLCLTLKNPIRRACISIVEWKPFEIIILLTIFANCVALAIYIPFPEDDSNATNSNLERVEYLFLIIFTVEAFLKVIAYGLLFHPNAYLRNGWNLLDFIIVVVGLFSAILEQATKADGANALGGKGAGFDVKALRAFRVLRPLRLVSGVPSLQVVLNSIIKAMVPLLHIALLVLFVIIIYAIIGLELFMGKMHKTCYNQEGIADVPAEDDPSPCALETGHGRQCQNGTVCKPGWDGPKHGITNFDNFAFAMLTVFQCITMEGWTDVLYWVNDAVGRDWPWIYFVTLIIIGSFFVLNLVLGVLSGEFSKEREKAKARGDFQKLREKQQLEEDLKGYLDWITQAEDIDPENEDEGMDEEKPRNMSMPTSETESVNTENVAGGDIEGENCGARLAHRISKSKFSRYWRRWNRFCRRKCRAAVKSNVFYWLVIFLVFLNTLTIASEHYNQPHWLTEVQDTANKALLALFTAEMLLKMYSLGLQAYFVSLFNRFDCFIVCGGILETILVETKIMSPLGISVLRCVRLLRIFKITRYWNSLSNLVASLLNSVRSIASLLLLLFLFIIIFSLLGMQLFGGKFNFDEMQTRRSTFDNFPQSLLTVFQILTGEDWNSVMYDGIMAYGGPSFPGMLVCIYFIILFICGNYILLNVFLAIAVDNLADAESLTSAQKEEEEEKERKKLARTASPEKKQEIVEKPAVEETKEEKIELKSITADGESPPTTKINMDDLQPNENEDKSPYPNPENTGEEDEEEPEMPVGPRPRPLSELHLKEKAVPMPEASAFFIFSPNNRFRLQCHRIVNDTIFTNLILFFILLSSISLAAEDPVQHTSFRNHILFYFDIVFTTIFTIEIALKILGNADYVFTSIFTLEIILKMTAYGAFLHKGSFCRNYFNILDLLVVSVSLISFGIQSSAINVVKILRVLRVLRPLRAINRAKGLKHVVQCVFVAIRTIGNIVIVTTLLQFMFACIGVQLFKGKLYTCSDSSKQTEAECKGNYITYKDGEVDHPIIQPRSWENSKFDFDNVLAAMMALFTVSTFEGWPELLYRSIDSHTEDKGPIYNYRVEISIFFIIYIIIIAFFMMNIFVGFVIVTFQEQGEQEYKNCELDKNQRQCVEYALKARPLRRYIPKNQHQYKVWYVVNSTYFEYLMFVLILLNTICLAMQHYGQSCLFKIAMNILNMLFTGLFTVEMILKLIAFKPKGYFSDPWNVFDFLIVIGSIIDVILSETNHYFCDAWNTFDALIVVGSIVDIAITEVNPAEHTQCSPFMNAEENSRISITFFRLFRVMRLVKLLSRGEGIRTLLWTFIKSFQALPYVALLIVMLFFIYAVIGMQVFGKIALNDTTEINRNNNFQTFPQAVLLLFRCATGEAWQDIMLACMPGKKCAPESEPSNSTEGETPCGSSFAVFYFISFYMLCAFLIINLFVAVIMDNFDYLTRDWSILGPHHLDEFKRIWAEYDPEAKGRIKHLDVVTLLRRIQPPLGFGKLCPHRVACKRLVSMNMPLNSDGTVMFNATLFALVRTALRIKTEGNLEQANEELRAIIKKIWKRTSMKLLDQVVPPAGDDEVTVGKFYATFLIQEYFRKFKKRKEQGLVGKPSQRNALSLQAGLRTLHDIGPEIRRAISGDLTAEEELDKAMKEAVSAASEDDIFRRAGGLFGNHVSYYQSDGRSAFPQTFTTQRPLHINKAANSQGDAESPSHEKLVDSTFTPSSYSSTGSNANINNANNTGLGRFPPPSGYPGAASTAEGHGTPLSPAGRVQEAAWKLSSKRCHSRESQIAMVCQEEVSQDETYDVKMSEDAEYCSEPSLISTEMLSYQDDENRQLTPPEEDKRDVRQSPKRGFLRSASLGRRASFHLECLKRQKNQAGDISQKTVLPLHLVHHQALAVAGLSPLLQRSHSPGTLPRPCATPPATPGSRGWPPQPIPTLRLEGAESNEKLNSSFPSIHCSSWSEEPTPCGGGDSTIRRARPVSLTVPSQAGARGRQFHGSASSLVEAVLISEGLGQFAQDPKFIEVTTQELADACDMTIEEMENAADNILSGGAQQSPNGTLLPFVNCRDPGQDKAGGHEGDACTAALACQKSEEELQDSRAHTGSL

Q: COc1ccccc1OCC(O)CN1CCN(CC(=O)Nc2c(C)cccc2C)CC1 (racemic) [ranolazine, N-(2,6-dimethylphenyl)-4-[2-hydroxy-3-(2-methoxyphenoxy)propyl]-1-piperazineacetamide] was tested. Which “APD50 ± SE, Epicardium” value ([1]; 1 μM, 2 mM [KCl]0) did it give?
A: 173 ± 2

Q: What about the “APD50 ± SE, M region” value ([1]; 1 μM, 2 mM [KCl]0) of the same compound?
A: 210.7 ± 13.53

Q: What about the “APD90 ± SE, Epicardium” value ([1]; 1 μM, 2 mM [KCl]0) of the same compound?
A: 232 ± 5.508

Q: And the “APD90 ± SE, M region” value ([1]; 1 μM, 2 mM [KCl]0)?
A: 280.3 ± 12.72

Q: And the QTend ([1]; 1 μM, 2 mM [KCl]0)?
A: 311 ± 9.5

Q: What about the TDR ([1]; 1 μM, 2 mM [KCl]0) of the same compound?
A: 28.33 ± 11.46

Q: And the Tpeak-Tend ([1]; 1 μM, 2 mM [KCl]0)?
A: 35 ± 4.70

Q: And the “APD50 ± SE, Epicardium” value ([1]; 1 μM, 4 mM [KCl]0)?
A: 176.3 ± 12.25

Q: What about the “APD50 ± SE, M region” value ([1]; 1 μM, 4 mM [KCl]0) of the same compound?
A: 203.3 ± 9.621

Q: What about the “APD90 ± SE, Epicardium” value ([1]; 1 μM, 4 mM [KCl]0) of the same compound?
A: 213.8 ± 13.28

Q: What about the “APD90 ± SE, M region” value ([1]; 1 μM, 4 mM [KCl]0) of the same compound?
A: 254.3 ± 9.15

Q: And the QTend ([1]; 1 μM, 4 mM [KCl]0)?
A: 263.5 ± 10.56

Q: And the TDR ([1]; 1 μM, 4 mM [KCl]0)?
A: 26.75 ± 8.045

Q: And the Tpeak-Tend ([1]; 1 μM, 4 mM [KCl]0)?
A: 34.5 ± 3.202

Q: And the “APD50 ± SE, Epicardium” value ([1]; 5 μM, 2 mM [KCl]0)?
A: 183.5 ± 1.5

Q: And the “APD50 ± SE, M region” value ([1]; 5 μM, 2 mM [KCl]0)?
A: 205.7 ± 7.881

Q: And the “APD90 ± SE, Epicardium” value ([1]; 5 μM, 2 mM [KCl]0)?
A: 252.5 ± 10.5

Q: What about the “APD90 ± SE, M region” value ([1]; 5 μM, 2 mM [KCl]0) of the same compound?
A: 289.7 ± 2.848

Q: What about the QTend ([1]; 5 μM, 2 mM [KCl]0) of the same compound?
A: 319 ± 4.58

Q: And the TDR ([1]; 5 μM, 2 mM [KCl]0)?
A: 15 ± 7

Q: What about the Tpeak-Tend ([1]; 5 μM, 2 mM [KCl]0) of the same compound?
A: 33 ± 1.33

Q: And the “APD50 ± SE, Epicardium” value ([1]; 5 μM, 4 mM [KCl]0)?
A: 176.5 ± 11.85

Q: And the “APD50 ± SE, M region” value ([1]; 5 μM, 4 mM [KCl]0)?
A: 207.5 ± 8.627

Q: What about the “APD90 ± SE, Epicardium” value ([1]; 5 μM, 4 mM [KCl]0) of the same compound?
A: 219 ± 12.12

Q: And the “APD90 ± SE, M region” value ([1]; 5 μM, 4 mM [KCl]0)?
A: 258.3 ± 11.08

Q: And the QTend ([1]; 5 μM, 4 mM [KCl]0)?
A: 274.5 ± 13.73

Q: What about the TDR ([1]; 5 μM, 4 mM [KCl]0) of the same compound?
A: 36 ± 2.449

Q: And the Tpeak-Tend ([1]; 5 μM, 4 mM [KCl]0)?
A: 37.75 ± 4.09

Q: And the “APD50 ± SE, Epicardium” value ([1]; 10 μM, 2 mM [KCl]0)?
A: 190 ± 2

Q: And the “APD50 ± SE, M region” value ([1]; 10 μM, 2 mM [KCl]0)?
A: 208.3 ± 3.48

Q: What about the “APD90 ± SE, Epicardium” value ([1]; 10 μM, 2 mM [KCl]0) of the same compound?
A: 265.5 ± 16.5

Q: And the “APD90 ± SE, M region” value ([1]; 10 μM, 2 mM [KCl]0)?
A: 305.3 ± 4.978

Q: What about the QTend ([1]; 10 μM, 2 mM [KCl]0) of the same compound?
A: 329 ± 2.33

Q: What about the TDR ([1]; 10 μM, 2 mM [KCl]0) of the same compound?
A: 23.5 ± 1.5

Q: What about the Tpeak-Tend ([1]; 10 μM, 2 mM [KCl]0) of the same compound?
A: 36 ± 4.09

Q: What about the “APD50 ± SE, Epicardium” value ([1]; 10 μM, 4 mM [KCl]0) of the same compound?
A: 170.5 ± 12.03

Q: And the “APD50 ± SE, M region” value ([1]; 10 μM, 4 mM [KCl]0)?
A: 199 ± 9.083

Q: What about the “APD90 ± SE, Epicardium” value ([1]; 10 μM, 4 mM [KCl]0) of the same compound?
A: 216.5 ± 13.41

Q: What about the “APD90 ± SE, M region” value ([1]; 10 μM, 4 mM [KCl]0) of the same compound?
A: 260.3 ± 12.66

Q: And the QTend ([1]; 10 μM, 4 mM [KCl]0)?
A: 277.8 ± 14.99

Q: What about the TDR ([1]; 10 μM, 4 mM [KCl]0) of the same compound?
A: 30.75 ± 10.46

Q: And the Tpeak-Tend ([1]; 10 μM, 4 mM [KCl]0)?
A: 39.25 ± 5.54

Q: What about the “APD50 ± SE, Epicardium” value ([1]; 50 μM, 2 mM [KCl]0) of the same compound?
A: 179 ± 1

Q: What about the “APD50 ± SE, M region” value ([1]; 50 μM, 2 mM [KCl]0) of the same compound?
A: 214.3 ± 6.333

Q: What about the “APD90 ± SE, Epicardium” value ([1]; 50 μM, 2 mM [KCl]0) of the same compound?
A: 276.5 ± 18.5

Q: And the “APD90 ± SE, M region” value ([1]; 50 μM, 2 mM [KCl]0)?
A: 325.5 ± 5.5

Q: What about the QTend ([1]; 50 μM, 2 mM [KCl]0) of the same compound?
A: 343 ± 2.84

Q: And the TDR ([1]; 50 μM, 2 mM [KCl]0)?
A: 35.5 ± 3.5

Q: What about the Tpeak-Tend ([1]; 50 μM, 2 mM [KCl]0) of the same compound?
A: 41 ± 6.35

Q: And the “APD50 ± SE, Epicardium” value ([1]; 50 μM, 4 mM [KCl]0)?
A: 159.5 ± 12.82

Q: What about the “APD50 ± SE, M region” value ([1]; 50 μM, 4 mM [KCl]0) of the same compound?
A: 187.8 ± 11.21

Q: What about the “APD90 ± SE, Epicardium” value ([1]; 50 μM, 4 mM [KCl]0) of the same compound?
A: 218 ± 15.91

Q: What about the “APD90 ± SE, M region” value ([1]; 50 μM, 4 mM [KCl]0) of the same compound?
A: 257.5 ± 15.47

Q: What about the QTend ([1]; 50 μM, 4 mM [KCl]0) of the same compound?
A: 279.3 ± 17.21

Q: What about the TDR ([1]; 50 μM, 4 mM [KCl]0) of the same compound?
A: 32.5 ± 6.278

Q: And the Tpeak-Tend ([1]; 50 μM, 4 mM [KCl]0)?
A: 41.25 ± 8.37

Q: And the “APD50 ± SE, Epicardium” value ([1]; 100 μM, 2 mM [KCl]0)?
A: 167.5 ± 0.5

Q: And the “APD50 ± SE, M region” value ([1]; 100 μM, 2 mM [KCl]0)?
A: 187.7 ± 4.978

Q: What about the “APD90 ± SE, Epicardium” value ([1]; 100 μM, 2 mM [KCl]0) of the same compound?
A: 293.5 ± 21.5

Q: And the “APD90 ± SE, M region” value ([1]; 100 μM, 2 mM [KCl]0)?
A: 345 ± 14.36

Q: What about the QTend ([1]; 100 μM, 2 mM [KCl]0) of the same compound?
A: 376 ± 4.48

Q: What about the TDR ([1]; 100 μM, 2 mM [KCl]0) of the same compound?
A: 35 ± 11

Q: What about the Tpeak-Tend ([1]; 100 μM, 2 mM [KCl]0) of the same compound?
A: 55 ± 1.00

Q: What about the “APD50 ± SE, Epicardium” value ([1]; 100 μM, 4 mM [KCl]0) of the same compound?
A: 152.5 ± 14.44

Q: And the “APD50 ± SE, M region” value ([1]; 100 μM, 4 mM [KCl]0)?
A: 169 ± 10.5

Q: And the “APD90 ± SE, Epicardium” value ([1]; 100 μM, 4 mM [KCl]0)?
A: 220.5 ± 18.26

Q: And the “APD90 ± SE, M region” value ([1]; 100 μM, 4 mM [KCl]0)?
A: 247.8 ± 15.32

Q: And the QTend ([1]; 100 μM, 4 mM [KCl]0)?
A: 284.5 ± 14.39

Q: And the TDR ([1]; 100 μM, 4 mM [KCl]0)?
A: 23.75 ± 2.689

Q: What about the Tpeak-Tend ([1]; 100 μM, 4 mM [KCl]0) of the same compound?
A: 40.5 ± 4.94

Q: And the “Arrhythmias in the wedge preparation” value ([1]; any concentration of ranolazine)?
A: No arrhythmias were observed

Q: And the “Ranolazine-induced Torsade de Pointes, Spontaneous” value ([1]; 2 mM [K+]0)?
A: 0/3

Q: What about the “Ranolazine-induced Torsade de Pointes, Stimulation-induced” value ([1]; 2 mM [K+]0) of the same compound?
A: 0/3

Q: And the “Ranolazine-induced Torsade de Pointes, Spontaneous” value ([1]; 4 mM [K+]0)?
A: 0/4

Q: And the “Ranolazine-induced Torsade de Pointes, Stimulation-induced” value ([1]; 4 mM [K+]0)?
A: 0/4

Q: What about the “Early or delayed afterdepolarizations” value ([1]; tissue or wedge preparations, any concentration of ranolazine) of the same compound?
A: Neither early nor delayed afterdepolarizations were observed

Q: And the “Effect on ATXII-induced EADs and MAP prolongation” value ([2]; ATXII 20 nM)?
A: reversed

Q: And the “Effect on ATXII-induced EADs and MAP prolongation” value ([2]; ATXII 20 nM, listed as Ranolazine)?
A: reduced or effectively abolished

Q: And the “Decrease of MAPS90” value ([2]; ATX-II plus 293B)?
A: 8.3±0.1%

Q: What about the “Decrease of MAPS90” value ([2]; ATX-II plus E-4031) of the same compound?
A: 24.5±0.1%

Q: What about the “Effect on ATXII-induced VT” value ([2]; ranolazine 30 μM, ATXII 20 nM) of the same compound?
A: reduced or effectively abolished

Q: What about the “Effect on ATXII-induced EADs and VT” value [2] of the same compound?
A: VTs were terminated

Q: What about the “Effect on ATXII-induced EADs and VT” value ([2]; listed as Ranolazine) of the same compound?
A: significantly suppressed EADs and VT

Q: What about the IC50 [3] of the same compound?
A: 296 µM
